# From patent US12350308B2, “Phosphorylcholine conjugates and uses thereof” (TPCERA LTD., priority 2013, dated 2025)
# *1 amine or outer side, *2 acyl side, *3 side chain or, on linkers, in order; H or OH if unused. Where a SMILES comes first, the peptide text is derived from it. [ ]: non-standard residue; d: D form. X1 = C[N+](C)(C)CCOP(=O)([O-])Oc1ccc(N=Nc2cc(C[C@H](N[*:1])C(=O)[*:2])ccc2O)cc1
# Experiments:
# Format in all cases: in vivo
# male C57BL/6 mice = assay: DSS induced acute colitis in mice
# Procedure: The effect of PC-tuftsin derivative (SEQ ID NO: 25) on colitis development was determined in a mouse model subjected to induction of acute colitis by dextran sulfate sodium (DSS) treatment. Specifically, induction of colitis was carried out in male C57BL/6 mice (“colitis mice”) by supplementing the drinking water (2.5% wt/v) for five days with DSS (mol. wt. 36,000-50,000).
# Two groups of mice were fed daily via oral ingestion using a feeding-needle, with PC-tuftsin derivative at a concentration of 500 μg/0.1 ml per mouse (treatment; n=10), or PBS (control; n=10). These compounds were given during 11 days starting two days before DSS administration.
# Assessment of colitis development was performed by monitoring body weight, rectal bleeding, stool consistency, and survival every second day. Intestinal bleeding was followed by Hemoccult test and observation of bleeding signs on the anus or gross bleeding. The daily disease activity index (DAI) was calculated by grading on a scale of zero to four the following parameters: change in weight (0, <1%; 1, 1-5%; 2, 5-10%; 3, 10— 15%; and 4, >15%), intestinal bleeding (0, negative; 4, positive), and stool consistency (0, normal; 2, loose stools; 4, diarrhea). The combined scores were then divided by three to obtain the final disease activity index. Ten days following disease induction, mice were sacrificed and the large intestine was collected and evaluated for colon length and microscopic colonic damage. For microscopic scoring, the proximal, medial, and distal portions of the colon and the cecum were fixed in 10% phosphate-buffered formalin. Paraffin-embedded sections were stained with H&E. The degree of histological damage and inflammation was graded in a blinded fashion by an expert pathologist
# colon lysates = assay: Cytokine expression in colon lysates of colitis mice (immunoblot)
# Procedure: The expression of the proinflammatory cytokines (TNFα, IL-17, IL-113) and anti-inflammatory cytokine IL-10 was analyzed by immunoblot in colon lysates.
# [1] = test system: female NZBxW/F1 lupus prone mice; assay: Proteinuria onset and immune complex deposits in lupus prone mice treated with TD-PC; details: s.c., prophylactic from week 14
# Text: To examine the potential protective effect of TD-PC (SEQ ID NO: 25 conjugated to PC), female NZBxW/F1 lupus prone mice received subcutaneous injections (s.c) of the TD-PC conjugate, phosphorylcholine (PC), tuftsin derivative (SEQ ID NO: 25) or PBS (control) via a prophylactic protocol starting at week 14, before the clinical onset of lupus (n ¼ 15 per group).
# NZBxW/F1 lupus mice = assay: Circulating anti-dsDNA antibodies in lupus mice treated with TD-PC (ELISA); details: sera at 30 weeks, dilution 1:800; between groups incl. PBS
# Procedure: Titers of circulating anti-dsDNA antibodies in the sera of control and treated mice were monitored during the development of lupus, and their levels were measured every 3 weeks. […] FIG. 23 presents the anti dsDNA antibodies titers in the sera at the age 30 weeks at a dilution of 1:800.
# [2] = test system: splenocytes derived from CIA mice; assay: Cytokine secretion in-vitro by splenocytes of CIA mice (oral and s.c. TD-PC); details: splenocyte culture fluids
# Procedure: Cytokines play a major role in synovial inflammation while the major ones are IL-17, TNFα and IL-1. Secretion of pro-inflammatory (TNFα, IL-1β, IL-17) and anti-inflammatory cytokines (IL-10) by splenocytes derived from CIA mice treated with TD-PC or PBS (control), in-vitro, was evaluated.
# Furthermore, TD-PC increased the level of anti-inflammatory cytokine IL-10 in a significant manner compared to control mice (p<0.0001; FIG. 28D and Table 3).
# [3] = test system: CD4+CD25+FOXP3+ Treg cells; assay: Treg expansion in splenocytes of CIA mice (FACS), Example 16; details: vs PBS
# Text: The frequency of CD4+CD25+FOXP3+ Treg cells subset in isolated mice splenocytes, following treatment with TD-PC or control (PBS) is elucidated in FIGS. 29A-29B. […] Representative data of the CD4+CD25+FOXP3+ levels in splenocytes derived from TD-PC and PBS treated mice gating on CD4+ T cells are presented in FIG. 29A and the corresponding statistics is presented in FIG. 29B.
# [4] = test system: splenocytes derived from CIA mice; assay: Cytokine secretion in-vitro by splenocytes of mice with established CIA; details: splenocyte culture fluids
# Procedure: Secretion, in-vitro, of pro-inflammatory and anti-inflammatory cytokines by splenocytes derived from CIA mice treated with TD-PC, PBS, TD, PC, TD+PC or untreated mice was evaluated (FIGS. 32A-32D). The following cytokines secretions were examined: pro-inflammatory IL-1β (FIG. 32A), IL-17 (FIG. 32B), IL-6 (FIG. 32C), TNF-α (FIG. 32D) and anti-inflammatory IL-10 (FIG. 32E).
# [5] = test system: CD4+CD25+FOXP3+ Treg cells; assay: Treg expansion in splenocytes of mice with established CIA (FACS); details: isolated splenocytes; PBS 1.4%
# Text: The frequency of CD4+CD25+FOXP3+ Treg cells subset in isolated splenocytes from mice treated with TPC, PBS, TD (SEQ ID NO: 25), PC, TD+PC or untreated is elucidated in FIGS. 33A and 33B. […] Representative data of the CD4+CD25+FOXP3+ levels in splenocytes derived from TD-PC, PBS, TD (SEQ ID NO: 25), PC and TD+PC treated mice and the untreated group, gating on CD4+ T cells are presented in FIG. 33B.
# [6] = 500 μg/0.1 ml oral daily, vs PBS
compound,measurement,setting,value
"C[C@@H](O)[C@H](N)C(=O)N[C@@H](CCCCN)C(=O)N1CCC[C@H]1C(=O)N[C@@H](CCCNC(=N)N)C(=O)NCC(=O)N[C@@H](Cc1ccc(O)c(N=Nc2ccc(OP(=O)([O-])OCC[N+](C)(C)C)cc2)c1)C(=O)O [TD-PC, Thr-Lys-Pro-Arg-Gly-Tyr-PC] (H-TKPRG[X1]-OH)",daily disease activity index (DAI) score,"male C57BL/6 mice; 500 μg/0.1 ml oral daily, day 8, PBS 2.6 after 5 days",around 0.9
same,loss of weight,male C57BL/6 mice; [6],significantly low
same,rectal bleeding,male C57BL/6 mice; [6],significantly low
same,survival,male C57BL/6 mice; [6],significantly higher survival
same,colon length,male C57BL/6 mice; PBS mice five-six cm,eight
same,histological analysis of colon sections (H&E),male C57BL/6 mice; vs PBS,attenuated colon destruction
same,IL-1β expression in colon lysates,colon lysates,suppressed
same,IL-10 expression in colon lysates,colon lysates,Significant increased
same,IL-17 expression in colon lysates,colon lysates,suppressed
same,TNFα expression in colon lysates,colon lysates,suppressed
same,immune complex (IC) deposits in the mesangium / nephritis class,[1],class-II nephritis
same,mice with proteinuria above 100 mg/dl,"[1]; age of 30 weeks, PBS 72%",21%
same,titers of circulating anti-dsDNA antibodies,NZBxW/F1 lupus mice,No statistically significant change
same,IL-1β,[2]; oral,183 pg/mL
same,IL-10,[2]; oral,3605 pg/mL
same,IL-17,[2]; oral,505 pg/mL
same,TNFα,[2]; oral,633 pg/mL
same,IL-1β,[2]; s.c.,198 pg/mL
same,IL-10,[2]; s.c.,2917 pg/mL
same,IL-17,[2]; s.c.,497 pg/mL
same,TNFα,[2]; s.c.,621 pg/mL
same,CD4+CD25+FOXP3+ Treg cells in isolated splenocytes,[3],striking increase
same,mean IL-10 level,[4]; PBS 298,1745 pg/mL
same,mean IL-6 level,[4]; PBS 840,480 pg/mL
same,mean IL-1β level,[4]; PBS 883,320 pg/mL
same,mean TNF-α level,[4]; PBS 1073,342 pg/mL
same,mean IL-17 level,[4]; PBS 2170,1770 pg/mL
same,mean percentage of CD4+CD25+FOXP3+ Treg cells,[5],8.75%
